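Five compound concentrations were applied to cells in 96-well plates for 48 hours; endpoints were derived by simple linear interpolation of the resulting dose-response curve. The concentration for full growth arrest is given as TGI.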

Holding throughout (test): NCI anticancer screen, dose series, 48 h
The test system of experiment [1] is 786-0 renal.
Experiment [2] concerns MDA-MB-435.
In experiment [3] the test system is IGROV1 ovarian.
For experiment [4], the system named is HL-60(TB) leukemia.
For experiment [5], the system named is OVCAR-5 ovarian.
Experiment [6] has as its system SR leukemia.
Experiment [7] has as its system MDA-N.
Experiment [8] deals with XF 498 CNS.
Experiment [9] concerns DMS 273 small cell lung.
The subject of experiment [10] is SNB-78 CNS.
The test system of experiment [11] is M19-MEL melanoma.
The test system of experiment [12] is DLD-1 colon.
For experiment [13], the system named is KM20L2 colon.
Experiment [14] relates to DMS 114 small cell lung.
Experiment [15] has as its system HOP-18 NSCLC.
For experiment [16], the system named is LXFL 529 NSCLC.

On to `N#Cc1sc2c(c1O)c(=O)n(-c1ccccc1)c(=S)n2-c1ccccc1`, for which the TGI in experiment [1], in experiment [2], in [3], in experiment [4], in experiment [5] and in [6] was > 100 µM each time. Moreover, the TGI in experiment [7] is > 100 µM.
For `COc1ccc(CCNCCCC2c3ccccc3-c3ccccc32)cc1OC`, the TGI stood at 28.9 µM in experiment [1]; 28.2 µM in experiment [8]; 21.2 µM in experiment [9]; 32.1 µM in experiment [10]; 24.5 µM in experiment [11]; 30.5 µM in experiment [12]. Moreover, the TGI in [13] was found to be 12.4 µM; in experiment [2], 28.3 µM; in [3], 26.8 µM; in experiment [14], 20.3 µM; in experiment [4], 47.7 µM; in [15], 30.6 µM. Moreover, the TGI in experiment [5] turned out to be 33.4 µM; in experiment [6] it was 24.2 µM; in [16], 27.5 µM; in experiment [7], 30.8 µM.
Regarding `O=C(CSC1=NNC2(C(=O)N1)c1ccccc1-c1ccccc12)NC(=S)Nc1ccccc1`, the TGI in experiment [1], in experiment [2], in experiment [3], in [4], in experiment [5] and in experiment [6] was > 10 µM in each case. For the same molecule, in [7], the TGI is > 10 µM.
With `CC1OC(OC2C(Oc3cc(O)c4c(c3)O[C@H](c3ccc(O)cc3)CC4=O)OC(CO)C(O)C2O)C(O)C(O)C1O` (some centres not stated), the TGI in [1], in experiment [2], in experiment [3], in experiment [4], in [5] and in experiment [6] was > 100 µM throughout. Moreover, the TGI in [7] was > 100 µM.
As to `CC(CCCOC(c1ccccc1)(c1ccccc1)c1ccccc1)OC(=O)Nc1ccccc1` (configuration not stated), the TGI in experiment [1] is 29.9 µM; in experiment [8], 28.1 µM; in experiment [9], 29.3 µM; in experiment [10], 31.9 µM; in [11] it was 28.3 µM; in [12] it was 27.1 µM. In addition, the TGI worked out at 19.8 µM in experiment [13]; 30 µM in experiment [3]; 24.5 µM in experiment [14]; 31.4 µM in experiment [4]; 26.8 µM in experiment [5]; 44.7 µM in [6]. Besides, the TGI in experiment [16] turned out to be 26 µM.
Regarding `S=C1N=C(Cl)/C(=C\c2ccccc2)N1`, the TGI in experiment [1], in experiment [2], in experiment [3], in [4], in experiment [5] and in experiment [6] was > 100 µM each time. Also, the TGI in [7] was > 100 µM.
Regarding `CC#CC(O)(C(=O)OC1CC2CCC(C1)N2C)C1CCCC1` (configuration not stated), the TGI in [1], in experiment [2], in experiment [3], in [4], in experiment [5] and in experiment [6] was > 100 µM throughout. Moreover, the TGI in experiment [7] is > 100 µM.
For the molecule `Cc1ccc(NC(=O)C(=O)Cc2cc[n+]([O-])cc2)cc1`, the TGI in experiment [1], in experiment [8], in experiment [9], in experiment [10], in experiment [11] and in [12] was > 100 µM in each case. Besides, the TGI in [13], in experiment [3], in experiment [14], in experiment [4], in [15] and in experiment [5] was > 100 µM throughout. Moreover, the TGI in experiment [6] and in experiment [16] was > 100 µM in each case.
In the case of `Cc1cc(-c2nc3cccc(F)c3s2)ccc1N`, the TGI in [1] was > 100 µM; in experiment [2], > 100 µM; in experiment [3], > 100 µM; in [4], > 100 µM; in experiment [5], > 100 µM; in [6], > 74.8 µM. Besides, the TGI in experiment [7] is > 100 µM.
As for `O=C(NNC(=O)c1ccccc1O)c1ccc(O)cc1`, the TGI in [1], in [2], in experiment [3], in experiment [4], in [5] and in experiment [6] was > 100 µM each time. Further, the TGI in [7] is > 100 µM.
In the case of `COc1ccccc1CNC(=O)[C@H](Cc1ccc(O)cn1)NC(C)=O`, the TGI in experiment [1], in experiment [2], in experiment [3], in experiment [4], in [5] and in experiment [6] was > 100 µM in each case. Further, the TGI in experiment [7] was > 100 µM.
In the case of `O=c1oc2ccc([N+](=O)[O-])cc2c(Nc2ccc3c(c2)S(=O)(=O)c2ccccc2O3)c1[N+](=O)[O-]`, the TGI in experiment [1], in experiment [2], in [3], in experiment [4], in experiment [5] and in experiment [6] was > 100 µM throughout. In addition, in [7], the TGI is > 100 µM.
As to `COc1cccc(-c2nc(-c3cnccn3)n(COCCO)n2)c1`, the TGI in experiment [1], in experiment [2], in [3], in experiment [4], in experiment [5] and in experiment [6] was > 100 µM in each case. Besides, the TGI in experiment [7] is > 100 µM.
Regarding `CC(=O)O[C@@H](C1C[C@@H](C)[C@H]2[C@@](O)(O1)[C@H](O)[C@@]1(C)C3=CC[C@H]4C(C)(C)[C@@H](OC5OCC(O)C(O)C5O)CC[C@@]45C[C@@]35CC[C@]21C)C(C)(C)O` (some centres not stated), the TGI was 63.6 µM in [1]; 53.3 µM in [2]; > 100 µM in [3]; 15.3 µM in experiment [4]; 56.6 µM in experiment [5]; 49.8 µM in experiment [6]. This molecule showed a TGI in experiment [7] of 73.6 µM.
Consider `CN(C)Cc1cc(N=Nc2ccc(Cl)cc2)ccc1OC(=O)c1ccccc1`, for which the TGI in experiment [1] is 27.8 µM; in experiment [2], 29.3 µM; in experiment [3], 25.9 µM; in [4], 43.7 µM; in experiment [5] it was 30.6 µM; in experiment [6], 31.8 µM. In [7], this molecule registered a TGI of 30.1 µM.

Values taken from PubChem BioAssay (NCI).
